Test results reported in ChEMBL document CHEMBL1201862, “PubChem BioAssay data set” (2004).
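Step 1: Grow cells in 96-well plates. Step 2: Expose to compound for 48 hours at 5 concentrations. Step 3: Interpolate endpoints linearly; if unreached, use highest concentration. Abbreviation: GI50, concentration required for 50% inhibition of growth.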 Activity calls are given as the source filed them. Rule as the data show it: active = GI50 up to about 1.1 µM and inactive = higher.

Key:
Assay in all cases: NCI anticancer screen, dose series, 48 h
SR = tested on: SR
HOP-62 = tested on: HOP-62
MOLT-4 = tested on: MOLT-4
MDA-N = tested on: MDA-N
HCT-116 = tested on: HCT-116
786-0 = tested on: 786-0
SF-539 = tested on: SF-539
OVCAR-3 = tested on: OVCAR-3
CAKI-1 = tested on: CAKI-1
A549 = tested on: A549
HCC 2998 = tested on: HCC 2998
NCI-H460 = tested on: NCI-H460
SK-MEL-2 = tested on: SK-MEL-2
MCF7 = tested on: MCF7
KM12 = tested on: KM12
Hs-578T = tested on: Hs-578T
HL-60 = tested on: HL-60

| Compound | GI50 (SR) | GI50 (HOP-62) | GI50 (MOLT-4) | GI50 (MDA-N) | GI50 (HCT-116) | GI50 (786-0) | GI50 (SF-539) | GI50 (OVCAR-3) | GI50 (CAKI-1) | GI50 (A549) | GI50 (HCC 2998) | GI50 (NCI-H460) | GI50 (SK-MEL-2) | GI50 (MCF7) | GI50 (KM12) | GI50 (Hs-578T) | GI50 (HL-60) |
| --- | --- | --- | --- | --- | --- | --- | --- | --- | --- | --- | --- | --- | --- | --- | --- | --- | --- |
| CSC(=S)OC1C(CO[Si](C)(C)C(C)(C)C)OC2OC(C)(C)OC21 (stereo unspecified) | 13.7 µM (inactive) | 18.4 µM (inactive) | 15.3 µM (inactive) | 29.2 µM (inactive) | 18.5 µM (inactive) | 19.5 µM (inactive) | 20.2 µM (inactive) | 17 µM (inactive) | 31.6 µM (inactive) | 25.5 µM (inactive) | 21.3 µM (inactive) | 17 µM (inactive) | 15 µM (inactive) | 16.3 µM (inactive) | 15.6 µM (inactive) |  |  |
| CN1N=C(c2ccncc2)OC1c1cccc(F)c1 (stereo unspecified) |  | > 100 µM (inactive) | > 100 µM (inactive) | > 100 µM (inactive) | > 100 µM (inactive) | > 100 µM (inactive) | > 100 µM (inactive) | > 100 µM (inactive) |  | > 100 µM (inactive) | > 100 µM (inactive) | > 100 µM (inactive) | > 100 µM (inactive) | > 100 µM (inactive) | > 100 µM (inactive) | > 100 µM (inactive) | > 100 µM (inactive) |
| c1ccc2c(c1)ncn2CCn1ccnc1 |  | > 100 µM (inactive) | > 100 µM (inactive) |  |  | > 100 µM (inactive) | > 100 µM (inactive) | > 100 µM (inactive) |  | > 100 µM (inactive) | > 100 µM (inactive) | > 100 µM (inactive) | > 100 µM (inactive) | > 100 µM (inactive) | > 100 µM (inactive) | > 100 µM (inactive) | > 100 µM (inactive) |
| OC1CN2CCS[C@H]2C(O)C1O (stereo partly specified) | > 100 µM (inactive) | > 100 µM (inactive) | > 100 µM (inactive) |  | > 100 µM (inactive) | > 100 µM (inactive) |  | > 100 µM (inactive) | > 100 µM (inactive) | > 100 µM (inactive) | > 100 µM (inactive) | > 100 µM (inactive) | > 100 µM (inactive) |  | > 100 µM (inactive) | > 100 µM (inactive) | > 100 µM (inactive) |
| C=CCCCC1CCCNC1=S (stereo unspecified) |  | > 100 µM (inactive) | > 100 µM (inactive) | > 100 µM (inactive) | > 100 µM (inactive) | > 100 µM (inactive) | > 100 µM (inactive) | > 100 µM (inactive) | > 100 µM (inactive) | > 100 µM (inactive) | > 100 µM (inactive) | > 100 µM (inactive) | > 100 µM (inactive) | > 100 µM (inactive) | > 100 µM (inactive) | > 100 µM (inactive) |  |
| COc1cc2c(cc1OC)CC1c3cc(OC)c(OC)cc3CCN1CC2 (stereo unspecified) | > 100 µM (inactive) | > 100 µM (inactive) | > 100 µM (inactive) |  | 26.3 µM (inactive) | > 100 µM (inactive) | 58.7 µM (inactive) | > 100 µM (inactive) | > 100 µM (inactive) | > 100 µM (inactive) | > 100 µM (inactive) | 17.5 µM (inactive) | > 100 µM (inactive) | > 100 µM (inactive) | > 100 µM (inactive) | 22.9 µM (inactive) | 10.6 µM (inactive) |
| O=C1Oc2ccccc2N/C1=C/C(=O)c1ccc([N+](=O)[O-])cc1 | > 100 µM (inactive) | > 100 µM (inactive) | > 100 µM (inactive) |  | > 100 µM (inactive) | > 100 µM (inactive) | > 100 µM (inactive) | > 100 µM (inactive) | > 100 µM (inactive) | > 100 µM (inactive) | > 100 µM (inactive) | > 100 µM (inactive) | > 100 µM (inactive) | > 100 µM (inactive) | > 100 µM (inactive) | 23.2 µM (inactive) |  |
| CC1(C)[C@@H](Cn2nnc3c(N)ncnc32)CC[C@@]1(C)CO |  | > 100 µM (inactive) | < 0.01 µM (active) | > 100 µM (inactive) | > 100 µM (inactive) | > 100 µM (inactive) | > 100 µM (inactive) | > 100 µM (inactive) | > 100 µM (inactive) | > 100 µM (inactive) | 12.6 µM (inactive) |  | > 100 µM (inactive) | > 100 µM (inactive) | > 100 µM (inactive) | > 100 µM (inactive) |  |
| COC(=O)c1cc(OS(=O)(=O)C(F)(F)F)c(=O)n2c1CCCC2 |  | > 100 µM (inactive) | > 100 µM (inactive) | > 100 µM (inactive) | > 100 µM (inactive) | > 100 µM (inactive) | > 100 µM (inactive) |  | > 100 µM (inactive) | > 100 µM (inactive) |  |  | > 100 µM (inactive) | > 100 µM (inactive) | > 100 µM (inactive) | > 100 µM (inactive) | > 100 µM (inactive) |
| CC[N+](CC)(CC)/C(=N\S(=O)(=O)c1ccc(Cl)cc1)[N-]S(=O)(=O)c1cc(C)c(Cl)cc1S |  | 52 µM (inactive) | 2.51 µM (inactive) | > 100 µM (inactive) | 26.5 µM (inactive) | > 100 µM (inactive) | 57.3 µM (inactive) | 83 µM (inactive) | > 100 µM (inactive) |  | 73.5 µM (inactive) | 41 µM (inactive) | > 100 µM (inactive) | 53.2 µM (inactive) | > 100 µM (inactive) | > 100 µM (inactive) | 53.8 µM (inactive) |
| C=C1CC(C)(c2ccc(Nc3nc4ccccc4c4occc34)cc2)OC1=O (stereo unspecified) | 1.63 µM (inactive) | 12.5 µM (inactive) | 1.82 µM (inactive) | 3.29 µM (inactive) | 1.34 µM (inactive) | 2.16 µM (inactive) | 2 µM (inactive) | 3.74 µM (inactive) | 15.8 µM (inactive) | 4.52 µM (inactive) | 2.32 µM (inactive) | 14.7 µM (inactive) |  | 3.32 µM (inactive) | 5.97 µM (inactive) |  | 2.07 µM (inactive) |
| CCOc1ccc2nc(-c3ccc(O)cc3)sc2c1 |  |  | > 100 µM (inactive) | > 100 µM (inactive) | 69.3 µM (inactive) |  | 45 µM (inactive) | 46.9 µM (inactive) | 36.7 µM (inactive) | > 100 µM (inactive) |  | 77.1 µM (inactive) | 71 µM (inactive) | > 100 µM (inactive) | 35 µM (inactive) |  | 2 µM (inactive) |
| COc1ccc(C2=N/C(=C\c3ccccc3)C(=O)O2)cc1 | 17.3 µM (inactive) | 38.7 µM (inactive) | 13.3 µM (inactive) |  |  |  | 44.3 µM (inactive) | 53.7 µM (inactive) |  | > 100 µM (inactive) | 75.9 µM (inactive) | > 100 µM (inactive) | > 100 µM (inactive) | > 100 µM (inactive) | 36.6 µM (inactive) | 40.8 µM (inactive) | 12.2 µM (inactive) |
| CO/C(=N\N=C(/c1ccccc1)C(F)(F)F)c1ccncc1 | 54.6 µM (inactive) | 46.6 µM (inactive) | 19.1 µM (inactive) |  | 28.3 µM (inactive) |  |  | 37.8 µM (inactive) | 45 µM (inactive) |  |  | 35.8 µM (inactive) | 25 µM (inactive) | 38.6 µM (inactive) | 43.7 µM (inactive) | 49.2 µM (inactive) | > 100 µM (inactive) |
| Cc1ccc(Nc2nc(=S)[nH]c3[nH]ncc23)cc1 | 36.1 µM (inactive) | > 100 µM (inactive) | > 100 µM (inactive) |  | 91.2 µM (inactive) | > 100 µM (inactive) | 65.8 µM (inactive) | 50.4 µM (inactive) | 58.1 µM (inactive) | 61.2 µM (inactive) | 77.3 µM (inactive) | 64.6 µM (inactive) | 82.4 µM (inactive) | 37.3 µM (inactive) | 31 µM (inactive) | 77.1 µM (inactive) | 48.8 µM (inactive) |
| CNC(=O)OCC1C2=C(C(=O)C(C)=C(N)C2=O)N2CC3C(N3C)C12OC (stereo unspecified) | 0.867 µM (active) | 14.4 µM (inactive) | 3.29 µM (inactive) |  | 10.9 µM (inactive) | 4.02 µM (inactive) | 10.1 µM (inactive) | 26.5 µM (inactive) | 3.16 µM (inactive) | 1.83 µM (inactive) | 12.4 µM (inactive) | 0.0867 µM (active) | 26.1 µM (inactive) | 3.29 µM (inactive) |  |  | 1.92 µM (inactive) |
| c1ccc(Nc2nnc(-c3ccccc3Nc3ccccc3-c3nnc(Nc4ccccc4)s3)s2)cc1 |  | > 100 µM (inactive) | 61.7 µM (inactive) | > 100 µM (inactive) | > 100 µM (inactive) | > 100 µM (inactive) | > 100 µM (inactive) | > 100 µM (inactive) |  |  | > 100 µM (inactive) | > 100 µM (inactive) | > 100 µM (inactive) | > 100 µM (inactive) | > 100 µM (inactive) |  | > 100 µM (inactive) |
| N#CCCN(CCNc1ccccc1)C(=O)Nc1ccc(NC(=O)N(CCC#N)CCNc2ccccc2)cc1 |  | > 47 µM (inactive) | > 100 µM (inactive) | > 100 µM (inactive) | > 100 µM (inactive) | > 68.9 µM (inactive) | > 100 µM (inactive) | > 92.9 µM (inactive) | > 100 µM (inactive) | > 100 µM (inactive) | > 100 µM (inactive) | > 67.6 µM (inactive) | > 100 µM (inactive) | > 100 µM (inactive) | > 96.6 µM (inactive) | > 41.9 µM (inactive) |  |
| Cc1ccc(/N=N/c2c(O)ccc3cc(S(=O)(=O)O)ccc23)cc1 |  | > 100 µM (inactive) | > 100 µM (inactive) | > 100 µM (inactive) | 24.2 µM (inactive) | 12.6 µM (inactive) |  | > 100 µM (inactive) | 23.9 µM (inactive) | > 100 µM (inactive) |  |  | > 100 µM (inactive) |  | 74.6 µM (inactive) | > 100 µM (inactive) |  |
